In ChEMBL document CHEMBL5241090, “A comprehensive overview of β-carbolines and its derivatives as anticancer agents” (Eur J Med Chem, 2021):
pIC50: −log10 of the molar value. Converted amounts (≈) assume the structure as drawn. Each block holds one compound with its values, some of them ahead of it.

How the values were obtained:
[1] = tested on: SGC-7901; experiment: Cytotoxicity against human SGC-7901 cells assessed as reduction in optical density by MTT assay; format: functional, cell-based
[2] = tested on: HepG2; experiment: Cytotoxicity against human HepG2 cells assessed as reduction in optical density by MTT assay; format: functional, cell-based
[3] = Cytotoxicity against human 95-D cells assessed as reduction in optical density by MTT assay; format: functional, cell-based
[4] = tested on: HCT-116; experiment: Cytotoxicity against human HCT-116 cells by MTT assay; format: functional, cell-based
[5] = tested on: A549; experiment: Cytotoxicity against human A549 cells; format: functional, cell-based
[6] = tested on: ACHN; experiment: Cytotoxicity against human ACHN cells; format: functional, cell-based
[7] = tested on: HeLa; experiment: Cytotoxicity against human HeLa cells; format: functional, cell-based
[8] = tested on: DU-145; experiment: Cytotoxicity against human DU-145 cells; format: functional, cell-based
[9] = tested on: MCF7; experiment: Cytotoxicity against human MCF7 cells; format: functional, cell-based
[10] = tested on: Huh-7; experiment: Cytotoxicity against human Huh-7 cells; format: functional, cell-based
[11] = tested on: HCT-116; experiment: Cytotoxicity against human HCT-116 cells; format: functional, cell-based
[12] = tested on: HeLa; experiment: Cytotoxicity against human HeLa cells measured after 48 hrs by MTT assay; format: functional, cell-based
[13] = tested on: PC-3; experiment: Cytotoxicity against human PC-3 cells measured after 48 hrs by MTT assay; format: functional, cell-based; settings: PC-3, 48 h
[14] = tested on: HGC-27; experiment: Cytotoxicity against human HGC-27 cells measured after 48 hrs by MTT assay; format: functional, cell-based; settings: HGC-27, 48 h
[15] = tested on: MCF7; experiment: Cytotoxicity against human MCF7 cells measured after 48 hrs by MTT assay; format: functional, cell-based; settings: MCF7, 48 h
[16] = tested on: HCC1395; experiment: Antiproliferative activity against human HCC1395 cells incubated for 48 hrs by MTT assay; format: functional, cell-based; settings: HCC1395, 48 h
[17] = tested on: DU-145; experiment: Antiproliferative activity against human DU-145 cells incubated for 48 hrs by MTT assay; format: functional, cell-based; settings: DU-145, 48 h
[18] = Cytotoxicity against human Lu1 cells; format: functional, cell-based
[19] = tested on: LNCaP; experiment: Cytotoxicity against human LNCaP cells; format: functional, cell-based
[20] = tested on: TERT-RPE1; experiment: Cytotoxicity against human TERT-RPE1 cells; format: functional, cell-based; settings: RPE-1
[21] = tested on: HUVEC; experiment: Cytotoxicity against human HUVEC cells; format: functional, cell-based
[22] = tested on: Col2; experiment: Cytotoxicity against human Col2 cells; format: functional, cell-based
[23] = tested on: Keratinocyte; experiment: Cytotoxicity against guinea pig ear keratinocytes using [3H]thymidine by liquid scintillation counting analysis; format: functional, cell-based; settings: Cavia porcellus
[24] = tested on: HT-29; experiment: Growth inhibition of human HT-29 cells incubated for 72 hrs by SRB assay; format: functional, cell-based; settings: HT-29, 72 h
[25] = tested on: A549; experiment: Growth inhibition of human A549 cells incubated for 72 hrs by SRB assay; format: functional, cell-based; settings: A549, 72 h
[26] = tested on: MDA-MB-231; experiment: Growth inhibition of human MDA-MB-231 cells incubated for 72 hrs by SRB assay; format: functional, cell-based; settings: MDA-MB-231, 72 h
[27] = tested on: NCI-H187; experiment: Cytotoxicity against human NCI-H187 cells; format: functional, cell-based
[28] = tested on: A549; experiment: Cytotoxicity against human A549 cells measured after 48 hrs by MTT assay; format: functional, cell-based; settings: A549, 48 h
[29] = tested on: SGC-7901; experiment: Cytotoxicity against human SGC-7901 cells measured after 48 hrs by MTT assay; format: functional, cell-based; settings: SGC-7901, 48 h
[30] = tested on: SMMC-7721; experiment: Cytotoxicity against human SMMC-7721 cells measured after 48 hrs by MTT assay; format: functional, cell-based; settings: SMMC-7721, 48 h
[31] = molecular target: T1, Kinesin-like protein KIF11 (Homo sapiens, UniProt P52732); experiment: Inhibition of KSP (unknown origin)
T1 sequence (P52732 whole entry): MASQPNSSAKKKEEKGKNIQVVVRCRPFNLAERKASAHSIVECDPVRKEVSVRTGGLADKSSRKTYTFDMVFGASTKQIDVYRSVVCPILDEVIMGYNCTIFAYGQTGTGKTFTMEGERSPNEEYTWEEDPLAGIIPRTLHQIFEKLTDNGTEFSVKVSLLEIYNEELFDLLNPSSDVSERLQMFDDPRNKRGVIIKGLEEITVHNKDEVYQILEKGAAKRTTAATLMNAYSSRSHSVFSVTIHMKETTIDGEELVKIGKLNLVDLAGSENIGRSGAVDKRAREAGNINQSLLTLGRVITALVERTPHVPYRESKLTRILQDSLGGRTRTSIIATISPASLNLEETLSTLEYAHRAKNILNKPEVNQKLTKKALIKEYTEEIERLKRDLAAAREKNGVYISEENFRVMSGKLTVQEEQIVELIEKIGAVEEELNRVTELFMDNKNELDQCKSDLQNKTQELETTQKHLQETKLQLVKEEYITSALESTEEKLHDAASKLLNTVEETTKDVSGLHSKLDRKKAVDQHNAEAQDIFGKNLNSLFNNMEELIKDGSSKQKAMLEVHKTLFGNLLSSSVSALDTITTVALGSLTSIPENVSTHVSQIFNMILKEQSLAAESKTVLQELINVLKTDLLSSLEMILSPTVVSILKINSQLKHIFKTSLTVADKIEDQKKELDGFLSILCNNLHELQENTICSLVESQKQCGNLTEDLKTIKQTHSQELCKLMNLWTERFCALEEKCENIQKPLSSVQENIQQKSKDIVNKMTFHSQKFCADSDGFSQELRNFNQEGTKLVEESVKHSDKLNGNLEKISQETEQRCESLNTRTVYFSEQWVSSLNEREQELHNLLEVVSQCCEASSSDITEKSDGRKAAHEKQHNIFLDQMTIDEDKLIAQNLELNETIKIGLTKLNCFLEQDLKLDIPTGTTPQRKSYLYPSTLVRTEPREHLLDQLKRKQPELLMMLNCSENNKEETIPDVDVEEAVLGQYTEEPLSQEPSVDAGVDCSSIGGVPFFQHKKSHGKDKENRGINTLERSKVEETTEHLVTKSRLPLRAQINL

[32] = molecular target: T2, DNA topoisomerase 1 (Homo sapiens, UniProt P11387); experiment: Inhibition of Topoisomerase 1 (unknown origin)
T2 sequence (P11387 whole entry): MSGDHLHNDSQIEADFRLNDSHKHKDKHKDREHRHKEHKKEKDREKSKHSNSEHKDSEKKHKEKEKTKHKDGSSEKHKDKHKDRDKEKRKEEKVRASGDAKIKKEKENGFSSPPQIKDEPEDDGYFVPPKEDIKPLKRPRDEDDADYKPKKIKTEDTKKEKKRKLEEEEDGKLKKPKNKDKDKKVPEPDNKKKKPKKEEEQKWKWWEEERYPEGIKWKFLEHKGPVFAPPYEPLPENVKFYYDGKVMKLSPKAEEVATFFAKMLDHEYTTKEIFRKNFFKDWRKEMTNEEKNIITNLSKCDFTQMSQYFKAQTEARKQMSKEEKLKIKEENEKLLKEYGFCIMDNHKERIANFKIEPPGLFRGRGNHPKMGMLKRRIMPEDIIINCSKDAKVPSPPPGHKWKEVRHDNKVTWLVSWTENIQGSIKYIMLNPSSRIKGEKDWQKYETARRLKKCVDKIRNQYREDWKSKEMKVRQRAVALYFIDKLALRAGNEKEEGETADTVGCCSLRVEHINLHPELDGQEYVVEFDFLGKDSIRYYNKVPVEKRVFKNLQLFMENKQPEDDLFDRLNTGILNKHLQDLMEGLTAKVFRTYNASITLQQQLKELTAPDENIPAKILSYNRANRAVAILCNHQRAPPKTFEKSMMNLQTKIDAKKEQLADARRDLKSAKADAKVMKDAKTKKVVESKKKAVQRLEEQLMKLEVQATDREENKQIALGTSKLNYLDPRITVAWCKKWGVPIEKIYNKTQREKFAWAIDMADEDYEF

[33] = tested on: COLO 205; experiment: Cytotoxicity against human COLO 205 cells measured after 24 hrs by MTT assay; format: functional, cell-based; settings: COLO 205, 24 h
[34] = tested on: A549; experiment: Cytotoxicity against human A549 cells measured after 24 hrs by MTT assay; format: functional, cell-based; settings: A549, 24 h
[35] = tested on: A2780; experiment: Cytotoxicity against human A2780 cells measured after 24 hrs by MTT assay; format: functional, cell-based; settings: A2780, 24 h
[36] = tested on: MCF7; experiment: Cytotoxicity against human MCF7 cells measured after 24 hrs by MTT assay; format: functional, cell-based; settings: MCF7, 24 h

Compound: CCn1c2cc(OC)ccc2c2ccnc(C)c21
pIC50 [1]: > 4.44
pIC50 [2]: > 4.44
pIC50 [3]: 4.44

Compound: COC(=O)c1cc2c([nH]c3ccccc32)c(C(C)=O)n1
IC50 [4]: 9.67 µg/mL (≈ 36 µM)

Compound: O=C(/C=C/c1cc2c([nH]c3ccccc32)c(-c2ccc(C(F)(F)F)cc2)n1)c1ccco1
pIC50 [5]: 5.72
pIC50 [6]: 5.72
pIC50 [7]: 5.72
pIC50 [8]: 5.72
pIC50 [9]: 5.72

Compound: CC(=O)N1N=C(c2ccco2)CC1c1cc2c([nH]c3ccccc32)c(-c2ccc(C(F)(F)F)cc2)n1 (configuration not stated)
pIC50 [5]: 5.71
pIC50 [6]: 5.71
pIC50 [7]: 5.71
pIC50 [8]: 5.71
pIC50 [9]: 5.71

Compound: Cc1ccc(-c2nc(NCc3ccc(C(=O)NO)cc3)cc3c2[nH]c2ccccc23)cc1
pIC50 [10]: 6.28
pIC50 [11]: 6.28
pIC50 [9]: 6.28

Compound: COc1ccc2c3ccnc(C)c3n(CCCc3ccccc3)c2c1
pIC50 [1]: > 4.44
pIC50 [2]: > 4.44
pIC50 [3]: 4.44

Compound: COc1ccc(-c2nc(Cn3cc(CN4C(=O)c5cccc6cccc(c56)C4=O)nn3)cc3c2[nH]c2ccccc23)cc1OC
pIC50 [12]: 5.13
pIC50 [13]: 5.13
pIC50 [14]: 5.13
pIC50 [15]: 5.13

Compound: COc1ccc2c3ccnc(C)c3n(C)c2c1
pIC50 [1]: > 4.44
pIC50 [2]: > 4.44
pIC50 [3]: > 4.44

IC50 [16]: 14.7 µg/mL (≈ 58.7 µM)
IC50 [17]: 1.58 µg/mL (≈ 6.31 µM)
Compound: COc1ccc2c(c1)c1ccnc3ccc(=O)n2c31

Compound: O=c1cc2c3ccccc3n3c(=O)ccc([nH]1)c23
pIC50 [18]: 6.30
pIC50 [19]: 6.30
pIC50 [20]: 6.30
pIC50 [21]: 6.30
pIC50 [22]: 6.30

Compound: COc1cnc2ccc(=O)n3c4ccccc4c1c23
IC50 [23]: 5.76 µg/mL (≈ 23 µM)

IC50 [24]: 45 µg/mL (≈ 126 µM)
IC50 [25]: 35 µg/mL (≈ 97.7 µM)
IC50 [26]: 42 µg/mL (≈ 117 µM)
Compound: NC(=O)c1c(-c2c[nH]c3cc(O)ccc23)ncc2[nH]c3ccc(O)cc3c12

IC50 [24]: 35 µg/mL (≈ 93.7 µM)
IC50 [25]: 100 µg/mL (≈ 268 µM)
IC50 [26]: 90 µg/mL (≈ 241 µM)
Compound: COc1ccc2[nH]c3cnc(-c4c[nH]c5cc(O)ccc45)c(C(=O)O)c3c2c1

Compound: C[C@H](O)c1nc(O)cc2c1[nH]c1ccccc12
pIC50 [27]: 4.10

Compound: O=C(OCCCCCOC(=O)c1cc2c3ccccc3n(Cc3ccccc3F)c2cn1)c1cc2c3ccccc3n(Cc3ccccc3F)c2cn1
pIC50 [28]: 5.25
pIC50 [12]: 5.25
pIC50 [29]: 5.25
pIC50 [30]: 5.25

pIC50 [31]: 5.05
pIC50 [32]: 5.60
Compound: Cc1ccc(-n2c(-c3cc4c([nH]c5ccccc54)c(-c4cccc(O)c4)n3)n[nH]c2=S)cc1

Compound: COc1ccc(C(=O)n2c3ccccc3c3ccnc(-c4cc(-c5ccc(-c6nc7ccccc7s6)cc5)no4)c32)c(OC)c1OC
pIC50 [33]: 6.19
pIC50 [34]: 6.85
pIC50 [35]: 6.72
pIC50 [36]: 7.00
